Assay results reported in patent US12241058B2, “Recombinant microbial system for directed evolution of glycocins and method of preparation thereof” (COUNCIL OF SCIENTIFIC & INDUSTRIAL RESEARCH, priority 2018, dated 2025).

What was measured:
L. monocytogenes EGD-e = assay: Agar diffusion test (ADT) of cell lysates, zone of growth inhibition, with PAS staining for glycosylation; type: cell-based, Listeria monocytogenes; conditions: ADT against L. monocytogenes, cleavage buffer treated cell lysate, glycosylation by PAS staining
THP-1 cells = assay: Cytotoxicity MTT reduction assay; type: cell-based; conditions: 50% cell death, THP-1 cells, MTT, 18-24 hours
Procedure: (§1) Cytotoxicity of Enterocin 96 and its variants (neo-glycocins) against THP-1 cells and anti-cancer potential against HepG2 cells was measured by the conventional MTT reduction assay. HepG2 and THP-1 cells (1×10^4 cells/well) were seeded into the 96-well plate and cultured at 37° C. in an atmosphere of 5% CO2 to allow them to adhere overnight. After 24 hours, the cells were exposed to Enterocin 96 and its variants (neo-glycocins) at various concentrations (75-1000 μM) for 18-24 hours. After the incubation period, 150 μl media and the suspended cells were discarded and washed with 200 μl PBS. After that, 200 μl of fresh media was added followed by 20 μl of MTT (5 mg/mL) into each well in the 96-well plate and incubated for 4 h in CO2 incubator. One hundred and fifty microlitres of medium with MTT was removed from every well and 100 μl DMSO was added to each well to solubilize the formazan crystal by incubating for 20 min in CO2 incubator. Finally, the plates were read at 570 nm by using Multiskan Go plate-reader (Thermo Scientific) and then percentage of cell viability was determined.

human red blood cells = assay: Hemolytic assay; type: cell-based
Procedure: Samples were prepared within 3 h of performing the assay. Neo-glycocins stock solutions of 1 mg/ml were prepared by dissolving the neo-glycocins in PBS (10 mM phosphate buffer, pH 7.4); the samples were mixed by inversion to ensure neo-glycocins were completely dissolved in PBS. To prepare the Human Red Blood Cell (hRBC) solution, blood was collected from healthy individual and RBCs were isolated following standard procedure. Informed consent was acquired from all donors and this work was carried out in compliance with the ethical committee guidelines of CSIR-IMTECH with IEC NO SUIEC/14/03.
2 ml whole blood from healthy individual was centrifuged for 30 mins at 1000 rpm(4° C.). Layer of RBCs was collected and diluted with equal volume of 1×PBS and mixture was centrifuged three times for 10 mins at 1000 rpm, 4° C. To prepare 4% RBC solution, 1 ml of RBC were mixed with 24 ml 1×PBS. To examine the hemolysis property of neo-glycocins (75-1000 μM), 20 μl of freshly prepared neo-glycocins solution was mixed with 180 μl of freshly prepared hRBC solution and was placed at 37° C. for 1 h. A total of 20 μl of PBS buffer only and 20 μl of Triton X-100 1% (w/v) were mixed with 180 μl of hRBC solution as negative and positive controls, respectively. After 1 h of incubation, all samples were centrifuged at 2500 rpm for 10 min. A total of 100 μl of supernatant was collected, and the release of hemoglobin was monitored by measuring the absorbance of the supernatant at 570 nm with a Multiskan Go plate-reader (Thermo Scientific). Hemolysis percentage for each sample was calculated by dividing sample's absorbance on positive control absorbance (complete hemolysis) multiplied by 100.

HepG2 cells = assay: Anti-cancer MTT reduction assay; type: cell-based; conditions: 50% cell (cancerous) death, HepG2 cells, MTT, 18-24 hours
Procedure: as §1

L. monocytogenes = assay: Determination of the MIC against L. monocytogenes (96-well broth dilution); type: cell-based, Listeria monocytogenes; conditions: Minimum Inhibitory Concentration against L. monocytogenes, 18 h at 37° C.
Procedure: One colony of an indicator strain (L. monocytogenes) was picked from an NB agar plate, inoculated to liquid NB medium and grown at 37° C., in a shaking incubator until OD^600 nm of 0.5 was reached. Then, the culture was diluted with NB medium and serial twofold dilutions with NB medium were made. Hundred microliters of Enterocin 96 solution (1 mg/ml in MQ) were transferred to a 96-well plate and mixed with 100 μl previously prepared cell suspension of sensitive strain. Similarly, positive control Nisin (1 mg/ml in MQ, Sigma Cat. # N5764), 100 μl mixture of NB medium with the Listeria, and negative controls (media alone, untreated indicator strain). 100 μL mixture of NB medium were prepared and dispersed in the same 96-well plates. The plate was incubated for 18 h at 37° C. in a shaking incubator. After incubation, the growth of bacteria was evaluated visually and by a plate reader. The analyses were performed in triplicate. Similarly, MIC of other variants of Enterocin 96 (neo-glycocins) was determined using above described method.

“SEQ ID NO: 43: variant of Enterocin 96: MASKRDCNLMKACCAGQAVTYAIQSLLNRLGGDSSDPAGCNDIVRKYCK (Variant of Enterocin 96)” was tested, and the “Zone of inhibition as well as glycosylation positive” value (“Zone of inhibition as well” for short) (L. monocytogenes EGD-e) was “positive” and the “Zone of inhibition as well” value (L. monocytogenes EGD-e; listed as H24Q) was “Yes”.
With “SEQ ID NO: 44: variant of Enterocin 96: MASKRDCNLMKARCAGQAVTYAIHSLLNRLGGDSSDPAGCNDIVRKYCK (Variant of Enterocin 96)” the “Zone of inhibition as well” value (L. monocytogenes EGD-e) was “positive” and the “Zone of inhibition as well” value (L. monocytogenes EGD-e; listed as C13R) was “Yes”.
For “SEQ ID NO: 46: variant of Enterocin 96: MASKRDCNLMKACCAEQAVTYAIHSLLNRLGGDSSDPAGCNDIVRKYCK (Variant of Enterocin 96)”, the “Zone of inhibition as well” value (L. monocytogenes EGD-e) was “positive”.
“SEQ ID NO: 47: variant of Enterocin 96: MASKRDCNLMKACCAGQAVTYAIHSLLNRLGGDSSVPAGCNDIVRKYCK (Variant of Enterocin 96)” was tested, and the “Zone of inhibition as well” value (L. monocytogenes EGD-e) was “positive” and the “Zone of inhibition as well” value (L. monocytogenes EGD-e; listed as D36V) was “Yes”.
“SEQ ID NO: 48: variant of Enterocin 96: MASKRDCNLMKACCAGQAVTYAIHSLLYRLGGDSSDPAGCNDIVRKYCK (Variant of Enterocin 96)” was tested, and the “Zone of inhibition as well” value (L. monocytogenes EGD-e) was “positive” and the “Zone of inhibition as well” value (L. monocytogenes EGD-e; listed as N28Y) was “Yes”.
“SEQ ID NO: 49: variant of Enterocin 96: MASKRDCNLMKACCAGHAVTYAIHSLLKRLGGDSSDPAGCNDIVRKYCK (Variant of Enterocin 96)” was tested, and the “Zone of inhibition as well” value (L. monocytogenes EGD-e) was “positive” and the “Zone of inhibition as well” value (L. monocytogenes EGD-e; listed as Q17H-N28K) was “Yes”.
With “SEQ ID NO: 50: variant of Enterocin 96: MASKRDCNLMKACCAGQAVTYAIHSLLNRLGGDSSDPAGSNDIVRKYCK (Variant of Enterocin 96)” the “Zone of inhibition as well” value (L. monocytogenes EGD-e) was “positive” and the “Zone of inhibition as well” value (L. monocytogenes EGD-e; listed as C40S) was “Yes”.
“SEQ ID NO: 51: variant of Enterocin 96: MASKHDCNLMKACCAGQAVTYAIHSLLNRLGGDSSDPAGCNDIVRKYCK (Variant of Enterocin 96)” was tested, and the “Zone of inhibition as well” value (L. monocytogenes EGD-e) was “positive” and the “Zone of inhibition as well” value (L. monocytogenes EGD-e; listed as R5H) was “Yes”.
With “SEQ ID NO: 52: variant of Enterocin 96: MASKRDCNLMKACCAGQAVTYGIHSLLNRLGGDSSDPAGCNDIVRKYCK (Variant of Enterocin 96)” the “Zone of inhibition as well” value (L. monocytogenes EGD-e) was “positive” and the “Zone of inhibition as well” value (L. monocytogenes EGD-e; listed as A22G) was “Yes”.
“SEQ ID NO: 53: variant of Enterocin 96: MASKRDCNLMKACCAGLAVTYAIHSLLNRLGGDSSDPAGCNDIVRKYCK (Variant of Enterocin 96)” was tested, and the “Zone of inhibition as well” value (L. monocytogenes EGD-e) was “positive” and the “Zone of inhibition as well” value (L. monocytogenes EGD-e; listed as Q17L) was “Yes”.
For “SEQ ID NO: 54: variant of Enterocin 96: MASKRDCNLMKACCAGQAVTYAIHSLLNRLGGDPSDPAGCNDIVRKYCK (Variant of Enterocin 96)”, the “Zone of inhibition as well” value (L. monocytogenes EGD-e) was “neither showed any bioactivity nor glycosylation”.
With “SEQ ID NO: 55: variant of Enterocin 96: MASKRDCNLMKACCAGQAVTYAIHSLLNRLGGNSSDPAGCNDIVRKYCK (Variant of Enterocin 96)” the “Zone of inhibition as well” value (L. monocytogenes EGD-e) was “neither showed any bioactivity nor glycosylation”.
“SEQ ID NO: 56: variant of Enterocin 96: MASKRDCNLMKACCAGQAVTYAIHSLLNRLGGDFSDPAGCNDIVRKYCK (Variant of Enterocin 96)” was tested, and the “Zone of inhibition as well” value (L. monocytogenes EGD-e) was “neither showed any bioactivity nor glycosylation”.
With “SEQ ID NO: 57: variant of Enterocin 96: MASKRDCNLMKACCAGQAVTYAIHSLLNRLGGDSSDWRCK (Variant of Enterocin 96)” the “Zone of inhibition as well” value (L. monocytogenes EGD-e) was “neither showed any bioactivity nor glycosylation”.
With “SEQ ID NO: 58: variant of Enterocin 96: MASKRDCNLMKACCAGQAVTYAIHSLLNRLGGDSGDPAGCNDIVRKYCK (Variant of Enterocin 96)” the “Zone of inhibition as well” value (L. monocytogenes EGD-e) was “neither showed any bioactivity nor glycosylation”.
“SEQ ID NO: 59: variant of Enterocin 96: MASKRDCNLMKACCAGQAVTYAIHSLLNRLGGDSSEPAGCNDIVRKYCK (Variant of Enterocin 96)” was tested, and the “Zone of inhibition as well” value (L. monocytogenes EGD-e) was “neither showed any bioactivity nor glycosylation”.
For “variant of Enterocin 96: MASKACCAGQAVTYAIHSLLNRLGGDSSDPAGCNDIVRKYCK (Variant of Enteriocin 96) [SEQ ID NO: 41]”, the IC50 (THP-1 cells) was 309.4 ± 0.388 µM, the “Hemolysis (MHC in μM)” value (human red blood cells) was 600 µM and the “Zone of inhibition as well” value (L. monocytogenes EGD-e) was “positive”. For the same substance, the “Zone of inhibition as well” value (L. monocytogenes EGD-e; listed as ECT) was “Yes”, the IC50 (HepG2 cells) was 167 ± 0.122 µM and the “Anti-bacterial activity (MIC in μM)” value (L. monocytogenes) was over 0.54 µM.
With “variant of Enterocin 96: MASKRDCNLMKACCAEQAVTYAIQSLLNRLGGDSSDPAGCNDIVRKYCK (Variant of Enterocin 96) [SEQ ID NO: 45]” the IC50 (THP-1 cells) was 167.3 ± 1.39 µM, the “Hemolysis (MHC in μM)” value (human red blood cells) was 600 µM and the “Zone of inhibition as well” value (L. monocytogenes EGD-e) was “positive”. The “Zone of inhibition as well” value (L. monocytogenes EGD-e; listed as G16E-H24L) was “Yes”, the IC50 (HepG2 cells) was 222.3 ± 0.11 µM and the “Anti-bacterial activity (MIC in μM)” value (L. monocytogenes) was over 0.54 µM.
With “variant of Enterocin 96: MASKRDCNLMKACCAGQAVTYAIHSLLNRLGGDSSGPAGCNDIVRKYCK (Variant of Enterocin 96) [SEQ ID NO: 42]” the IC50 (THP-1 cells) was 279.3 ± 0.0769 µM, the “Hemolysis (MHC in μM)” value (human red blood cells) was 600 µM and the “Zone of inhibition as well” value (L. monocytogenes EGD-e) was “positive”. For the same substance, the “Zone of inhibition as well” value (L. monocytogenes EGD-e; listed as D36G) was “Yes”, the IC50 (HepG2 cells) was 204.2 ± 0.134 µM and the “Anti-bacterial activity (MIC in μM)” value (L. monocytogenes) was over 0.54 µM.
